Series [1] in a line: Intrinsic clearance in human hepatocytes assessed per million cells by UPLC-MS analysis. The format is ADME, cell-based, Hepatocyte. The settings on record: read-out: CLH.
Series [2] can be described thus: Drug metabolism in rat liver microsomes assessed as N-methyl-2-(3'-propoxy-5,5'-bi(1,2,4-triazin)-3-yloxy)ethanamine formation by LC-MS/MS(CID) analysis. The format is ADME, Microsome. Background: Liver microsomes are a subcellular fraction often used to study metabolism.
Series [3] in a line: Drug metabolism in mouse liver microsomes assessed as formation of cleavage product M-69 in presence of NADPH by LC-MS/MS(CID) analysis. The format is ADME, Microsome.
A short description of series [4]: Oral bioavailability in Swiss mouse at 2.8 mg/kg measured up to 24 hrs. Type of series: ADME, organism-based. The conditions noted are these: in vivo.
The nature of series [5]: Oral bioavailability in Swiss mouse at 27 mg/kg measured up to 24 hrs. The format is ADME, organism-based. The settings on record: in vivo.
Series [6] in a line: Cmax in Sprague-Dawley rat plasma at 10 mg/kg, po administered via gavage measured at 0.25 to 2.5 hrs by LC-MS analysis. Type of series: ADME, organism-based. Details: route oral, time upper 2.5 hrs, dose 10 mg/kg, time lower 0.25 hrs.

The structures appear in SMILES notation.

Consider `CCCOc1nncc(-c2cnnc(OCCN(C)C)n2)n1`, for which the hepatocyte CLint in series [1] is 3.6 µL/min/1e6 cells. Moreover, the Drug metabolism result in series [2] and in series [3] was “Metabolite_Detected” each time. Further, the bioavailability in series [4] worked out at 10%; in series [5], 12%. The Cmax in series [6] was determined as 89.4 nM.

By bioavailability is commonly meant dose-corrected exposure relative to a reference, in per cent. Read a low bioavailability as little systemic uptake. As usually defined, the Cmax is the peak of the concentration-time curve.

The values above are taken from ChEMBL document CHEMBL4808169, “Discovery of Potent and Fast-Acting Antimalarial Bis-1,2,4-triazines” (J Med Chem, 2021).
